Experimental data as given in article PMC3903516 (PLoS ONE, 2014).
Residue numbers refer to the chain shown, from its start.

Assays:
[1] = test system: CYP2A6 K476E; parameters: method as in PMID 16207711; conditions: towards coumarin; cited from earlier work
[2] = biological target: T1, CYP2A6*1 (wild-type) (Homo sapiens, UniProt P11509); parameters: method as in PMID 20139165; conditions: coumarin 7-hydroxylation, mean ± SD n=3; cited from earlier work
T1 construct: made in house; host or cells: E. coli (membrane fractions; pCW-CYP2A6*1 co-expressed with pACYC-OxR)
T1 sequence (P11509 1-494): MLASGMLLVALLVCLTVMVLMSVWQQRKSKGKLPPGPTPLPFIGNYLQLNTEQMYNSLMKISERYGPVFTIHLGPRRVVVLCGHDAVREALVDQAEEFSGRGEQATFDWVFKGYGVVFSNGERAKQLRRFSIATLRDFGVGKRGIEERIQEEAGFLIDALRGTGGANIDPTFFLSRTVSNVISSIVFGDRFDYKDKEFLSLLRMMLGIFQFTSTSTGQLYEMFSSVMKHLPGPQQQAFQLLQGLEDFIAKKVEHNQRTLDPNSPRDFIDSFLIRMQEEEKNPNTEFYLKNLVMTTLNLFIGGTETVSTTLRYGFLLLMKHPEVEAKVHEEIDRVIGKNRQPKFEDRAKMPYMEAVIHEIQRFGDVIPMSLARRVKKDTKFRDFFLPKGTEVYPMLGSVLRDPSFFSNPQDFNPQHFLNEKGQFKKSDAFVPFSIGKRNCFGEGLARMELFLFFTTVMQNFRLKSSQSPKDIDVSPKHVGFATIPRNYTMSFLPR

[3] = biological target: T2, CYP2A6*22 (Homo sapiens, UniProt P11509, D158E/L160I); parameters: method as in PMID 20139165; conditions: coumarin 7-hydroxylation, mean ± SD n=3; cited from earlier work
T2 construct: made in house; host or cells: E. coli (membrane fractions; pCW-CYP2A6*22 co-expressed with pACYC-OxR)
T2 sequence (P11509 1-494 D158E/L160I): T1 sequence (P11509 1-494) with D158E, L160I

[4] = biological target: T3, CYP2A6*15 (Homo sapiens, UniProt P11509, K194E); parameters: method as in PMID 20139165; conditions: coumarin 7-hydroxylation, mean ± SD n=3; cited from earlier work
T3 construct: made in house; host or cells: E. coli (membrane fractions; pCW-CYP2A6*15 co-expressed with pACYC-OxR)
T3 sequence (P11509 1-494 K194E): T1 sequence (P11509 1-494) with K194E

[5] = biological target: T4, CYP2A6*21 (Homo sapiens, UniProt P11509, K476R); parameters: method as in PMID 20139165; conditions: coumarin 7-hydroxylation, mean ± SD n=3; cited from earlier work
T4 construct: made in house; host or cells: E. coli (membrane fractions; pCW-CYP2A6*21 co-expressed with pACYC-OxR)
T4 sequence (P11509 1-494 K476R): T1 sequence (P11509 1-494) with K476R

[6] = biological target: T5, CYP2A6*16 (Homo sapiens, UniProt P11509, R203S); parameters: method as in PMID 20139165; conditions: coumarin 7-hydroxylation, mean ± SD n=3; cited from earlier work
T5 construct: made in house; host or cells: E. coli (membrane fractions; pCW-CYP2A6*16 co-expressed with pACYC-OxR)
T5 sequence (P11509 1-494 R203S): T1 sequence (P11509 1-494) with R203S

[7] = biological target: T5, CYP2A6*16; test: CYP2A6 inactivation assay (fluorescence-based coumarin 7-hydroxylase assay); type: biochemical; conditions: pH 7.4, probe coumarin (10 µM; 7-hydroxylation), 8-MOP 1.0 µM, 10 min pre-incubation with NADPH generating system vs no pre-incubation, read-out: increased percentage in inhibition with pre-incubation
Source text: (§1) A fully functional P450 monooxygenase system requires collaboration of the CYP of interest in concert with the essential coenzyme, NADPH-CYP oxidoreductase (OxR). Here, we co-expressed the individual CYP2A6 plasmid constructs – pCW-CYP2A6, pCW-CYP2A6*15, pCW-CYP2A6*16, pCW-CYP2A6*21 or pCW-CYP2A6*22, with pACYC-OxR plasmid which allowed for OxR co-expression that was important for CYP2A6 catalytic function. Preparation of membrane fragments expressing holoenzyme protein of respective CYP2A6 construct was in accordance to the established method described previously. Membrane fractions were stored at −80°C in a 1∶1 mixture of pH 7.6 TES (100 mM Tris/0.5 mM EDTA/500 mM sucrose buffer) and ice-cold distilled water before use.
(§2) Assessment of coumarin 7-hydroxylation is a signature marker for CYP2A6 metabolic assay. To evaluate the inhibitory potency of 8-MOP on the kinetic activity of CYP2A6 variants, we adopted a fluorescence-based coumarin 7-hydroxylase assay upon minor modifications of an established protocol, [13]. […] NADPH generating system (1 mM NADP, 10 mM G6P, 2IU G6PDH and 5 mM MgCl2) in 0.1 M phosphate buffer, pH 7.4 was added subsequently to the incubation mixture to initiate the reactions. […] Enzyme inhibition reactions were allowed in 25 minutes of incubation and later terminated by 500 mM Tris base. The experimental conditions were selected such that under conditions with varying activities of CYP2A6 proteins, no more than 20% of the substrate was converted to 7-hydroxycoumarin. The fluorescent metabolite was detected by Tecan Infinite™ 200 series microplate reader (Männerdorf, Switzerland) at excitation wavelength 365 nm and emission wavelength 450 nm and further estimated based on the standard curve of 7-hydroxycoumarin which was constructed in the range of 15.63–2000 pmol/well previously (data not shown). Current assay also included control for fluorescent interference which consisted of inhibitor (at a concentration equal to the inhibition incubations) and bacterial control membranes.

[8] = biological target: T3, CYP2A6*15; test: as above; type: biochemical; conditions: pH 7.4, probe coumarin (10 µM; 7-hydroxylation), 8-MOP 1.0 µM, 10 min pre-incubation with NADPH generating system vs no pre-incubation, read-out: increased percentage in inhibition with pre-incubation
Source text: as §1, §2

[9] = biological target: T4, CYP2A6*21; test: as above; type: biochemical; conditions: pH 7.4, probe coumarin (10 µM; 7-hydroxylation), 8-MOP 1.0 µM, 10 min pre-incubation with NADPH generating system vs no pre-incubation, read-out: increased percentage in inhibition with pre-incubation
Source text: as §1, §2

[10] = biological target: T2, CYP2A6*22; test: as above; type: biochemical; conditions: pH 7.4, probe coumarin (10 µM; 7-hydroxylation), 8-MOP 1.0 µM, 10 min pre-incubation with NADPH generating system vs no pre-incubation, read-out: increased percentage in inhibition with pre-incubation
Source text: as §1, §2

[11] = biological target: T1, CYP2A6*1 (wild-type); test: as above; type: biochemical; conditions: pH 7.4, probe coumarin (10 µM; 7-hydroxylation), 8-MOP 1.0 µM, 10 min pre-incubation with NADPH generating system vs no pre-incubation, read-out: increased percentage in inhibition with pre-incubation
Source text: as §1, §2

| inhibition at 35 min, 1 µM [7] [%] | inhibition at 35 min, 1 µM [8] [%] | inhibition at 35 min, 1 µM [9] [%] | inhibition at 35 min, 1 µM [10] [%] | inhibition at 35 min, 1 µM [11] [%] | Structure (SMILES) | catalytic efficiency, % of the wild type kcat/Km value [1] [%] | Km [2] [µM] | Km [3] [µM] | Km [4] [µM] | Km [5] [µM] | Km [6] [µM] |
| --- | --- | --- | --- | --- | --- | --- | --- | --- | --- | --- | --- |
|  |  |  |  |  | O=c1ccc2ccccc2o1 [coumarin] | ~8 | 10.6 ± 1.58 | 31.2 ± 2.22 | 22.1 ± 1.29 | 16.4 ± 0.41 | 10.5 ± 1.45 |
| 31 | 32 | 24 | 23 | 35 | COc1c2occc2cc2ccc(=O)oc12 [8-methoxypsoralen] |  |  |  |  |  |  |
